We go through two molecules from article PMC6314390 (The Journal of General Physiology, 2019).

The target of assay [1] is T1, cardiac troponin C (cTnC) (Homo sapiens, UniProt P63316, C35S/C84S). The experiment in a line: 2D [1H, […]]-HSQC NMR titration. The assay is classed as binding.
In assay [2] the target is T1, cardiac troponin C (cTnC). Briefly: 2D [1H, […]]-HSQC NMR titration. Format: binding. The source holds these as a separate data set.

In the case of `CC(C)COCC(CN(Cc1ccccc1)c1ccccc1)N1CCCC1` (centres unmarked) [bepridil], the “2D [1H,15N]-HSQC NMR titration” value in assay [1] is “As bepridil is titrated into cTnC, NMR signals corresponding to the cNTnC domain move as the conformational equilibrium shifts”.
Consider `Clc1cccc(Nc2ccccc2)c1` [3-Cl-DPA, 3-Chlorodiphenylamine], for which the dissociation constant Kd in assay [2] came to 6 ± 1 µM.

As usually defined, the Kd is a measure of binding affinity in units of concentration.
